From patent US3957987A, “Compositions containing a carbonamidoquinoxaline-di-N-oxide and method of using same” (Bayer Aktiengesellschaft, priority 1971, dated 1976)
Converted amounts (≈) assume the structure as drawn.

Assays:
Klebsiella 63 = assay: Minimum inhibitory concentration in vitro, Klebsiella 63; type: cell-based
Excerpt: (§1) As representative of the spectrum of antimicrobial activity for these compounds, the following representative minimum inhibitory concentrations shown on Tables A, B and C can be noted:
(§2) Minimum Inhibitory Concentrations In Vitro, in μg/ml of Medium

Klebsiella 8085 = assay: Minimum inhibitory concentration in vitro, Klebsiella 8085; type: cell-based
Excerpt: as §1, §2

[1] = system: Staphylococcus aureus 133; assay: Minimum inhibitory concentration in vitro, Staphylococcus aureus 133; type: cell-based
Excerpt: as §1, §2

Streptococcus pyogenes = assay: Minimum inhibitory concentration in vitro, Streptococcus pyogenes; type: cell-based
Excerpt: as §1, §2

Escherichia coli C 165 = assay: Minimum inhibitory concentration in vitro, Escherichia coli C 165; type: cell-based; conditions: C165
Excerpt: as §1, §2

Escherichia coli A 261 = assay: Minimum inhibitory concentration in vitro, Escherichia coli A 261; type: cell-based; conditions: A261
Excerpt: as §1, §2

Proteus vulgaris = assay: Minimum inhibitory concentration in vitro, Proteus vulgaris specieis; type: cell-based
Excerpt: as §1, §2

Clostridium tetani = assay: microbe, parasite or virus in culture; type: cell-based; conditions: read-out: minimum inhibitory concentration
Clostridium botulinum = assay: microbe, parasite or virus in culture; type: cell-based; conditions: read-out: minimum inhibitory concentration
Mycoplasma S6 = assay: Minimum inhibitory concentration, Mycoplasma S6; type: cell-based
Mycoplasma gran = assay: Minimum inhibitory concentration, Mycoplasma gran; type: cell-based
[2] = system: Pasteurella multocida ATCC; assay: Minimum inhibitory concentration, Pasteurella multocida ATCC; type: cell-based
[3] = system: Alcaligenes faecalis ATCC; assay: Minimum inhibitory concentration, Alcaligenes faecalis ATCC; type: cell-based
[4] = system: Bordetella bronchiseptica; assay: Minimum inhibitory concentration, Bordetella bronchiseptica; type: cell-based
Aeromonas liquefaciens = assay: Minimum inhibitory concentration, Aeromonas liquefaciens; type: cell-based; conditions: Aeromonas hydrophila
Mycobacterium species = assay: Minimum inhibitory concentration, Mycobacterium species; type: cell-based
Excerpt: (§3) As representative of the spectrum of antimicrobial activity for these compounds, the following representative minimum inhibitory concentrations shown on Tables A, B and C can be noted: […]

Mycoplasma MS = assay: Minimum inhibitory concentration, Mycoplasma MS; type: cell-based
Excerpt: as §3

Chick Fattening Test = type: in vivo; conditions: for Relative Weight Increase (%) after 14 days / Relative Weight Increase (%) after 28 days: control 100.0
Excerpt: The use of these compounds as feed additives can be seen from the following feeding experiments (Table D).
Chicks in groups of 12 were kept in cages and supplied with water ad libitum and a complete chick feed into which was intimately mixed the indicated amount of the test compound.

| Compound | MIC (Klebsiella 63) | MIC (Klebsiella 8085) | MIC [1] | MIC (Streptococcus pyogenes) | MIC (Clostridium tetani) | MIC (Clostridium botulinum) | MIC (Mycoplasma S6) | MIC (Mycoplasma gran) | MIC [2] | MIC [3] | MIC [4] | MIC (Aeromonas liquefaciens) | MIC (Mycobacterium species) | MIC (Mycoplasma MS) | further results |
| --- | --- | --- | --- | --- | --- | --- | --- | --- | --- | --- | --- | --- | --- | --- | --- |
| CCNC(=O)c1c(C=NNC(=O)OC)[n+]([O-])c2ccccc2[n+]1[O-] [Example 18] | 100 µg/mL (≈ 300 µM) | 10 µg/mL (≈ 30 µM) | 100 µg/mL (≈ 300 µM) | 100 µg/mL (≈ 300 µM) | 100 µg/mL (≈ 300 µM) | 100 µg/mL (≈ 300 µM) | 100 µg/mL (≈ 300 µM) | 100 µg/mL (≈ 300 µM) | 100 µg/mL (≈ 300 µM) | 100 µg/mL (≈ 300 µM) | 100 µg/mL (≈ 300 µM) | 100 µg/mL (≈ 300 µM) | 100 µg/mL (≈ 300 µM) | – | MIC (Escherichia coli C 165): 100 µg/mL (≈ 300 µM); MIC (Escherichia coli A 261): 100 µg/mL (≈ 300 µM); MIC (Proteus vulgaris): 100 µg/mL (≈ 300 µM) |
| CCOC(=O)NN=Cc1c(C(=O)NCCO)[n+]([O-])c2ccccc2[n+]1[O-] [Example 27] | – | 100 µg/mL (≈ 275 µM) | – | 100 µg/mL (≈ 275 µM) | 100 µg/mL (≈ 275 µM) | 100 µg/mL (≈ 275 µM) | 100 µg/mL (≈ 275 µM) | 100 µg/mL (≈ 275 µM) | 100 µg/mL (≈ 275 µM) | 100 µg/mL (≈ 275 µM) | 100 µg/mL (≈ 275 µM) | 100 µg/mL (≈ 275 µM) | – | – | – |
| CCCNC(=O)c1c(C=NO)[n+]([O-])c2ccccc2[n+]1[O-] [Example 23] | – | – | – | – | 100 µg/mL (≈ 344 µM) | 1 µg/mL (≈ 3.44 µM) | 100 µg/mL (≈ 344 µM) | 1 µg/mL (≈ 3.44 µM) | 100 µg/mL (≈ 344 µM) | 100 µg/mL (≈ 344 µM) | 100 µg/mL (≈ 344 µM) | 100 µg/mL (≈ 344 µM) | 100 µg/mL (≈ 344 µM) | 100 µg/mL (≈ 344 µM) | – |
| O=C(NN=Cc1c(C(=O)NCCO)[n+]([O-])c2ccccc2[n+]1[O-])OCCO [Example 28] | – | – | – | – | 100 µg/mL (≈ 264 µM) | 100 µg/mL (≈ 264 µM) | 100 µg/mL (≈ 264 µM) | 100 µg/mL (≈ 264 µM) | 100 µg/mL (≈ 264 µM) | 100 µg/mL (≈ 264 µM) | 100 µg/mL (≈ 264 µM) | 100 µg/mL (≈ 264 µM) | – | – | – |
| COC(=O)NN=Cc1c(C(=O)N2CCCCC2)[n+]([O-])c2ccccc2[n+]1[O-] [Example 10] | 100 µg/mL (≈ 268 µM) | 100 µg/mL (≈ 268 µM) | 100 µg/mL (≈ 268 µM) | 100 µg/mL (≈ 268 µM) | 10 µg/mL (≈ 26.8 µM) | 10 µg/mL (≈ 26.8 µM) | 10 µg/mL (≈ 26.8 µM) | 10 µg/mL (≈ 26.8 µM) | 1 µg/mL (≈ 2.68 µM) | 100 µg/mL (≈ 268 µM) | 100 µg/mL (≈ 268 µM) | 100 µg/mL (≈ 268 µM) | 100 µg/mL (≈ 268 µM) | 100 µg/mL (≈ 268 µM) | – |
| O=C(NCCO)c1c(C=NO)[n+]([O-])c2ccccc2[n+]1[O-] [Example 20] | – | – | – | – | 100 µg/mL (≈ 342 µM) | 100 µg/mL (≈ 342 µM) | 100 µg/mL (≈ 342 µM) | 100 µg/mL (≈ 342 µM) | 100 µg/mL (≈ 342 µM) | 100 µg/mL (≈ 342 µM) | 100 µg/mL (≈ 342 µM) | 100 µg/mL (≈ 342 µM) | 100 µg/mL (≈ 342 µM) | – | Relative Weight Increase (%) after 14 days (Chick Fattening Test; Test 1, 50 ppm in feed): 107.4%; Absolute Weight Increase (g) of each animal after 14 days (Chick Fattening Test; Test 1, 50 ppm in feed, control 111.5): 119.9 g; Average Weight of each animal after 14 days (Chick Fattening Test; Test 1, 50 ppm in feed, control 170.8, initial weight 59.3 g): 179.2; Relative Weight Increase (%) after 28 days (Chick Fattening Test; Test 1, 50 ppm in feed): 104.1%; Absolute Weight Increase (g) of each animal after 28 days (Chick Fattening Test; Test 1, 50 ppm in feed, control 275.9): 287.3 g; Average Weight of each animal after 28 days (Chick Fattening Test; Test 1, 50 ppm in feed, control 335.2, initial weight 59.3 g): 346.6; Relative Weight Increase (%) after 14 days (Chick Fattening Test; Test 2, 10 ppm in feed): 104.5%; Absolute Weight Increase (g) of each animal after 14 days (Chick Fattening Test; Test 2, 10 ppm in feed, control 109.2): 114.2 g; Average Weight of each animal after 14 days (Chick Fattening Test; Test 2, 10 ppm in feed, control 168.3, initial weight 59.1 g): 173.3; Relative Weight Increase (%) after 28 days (Chick Fattening Test; Test 2, 10 ppm in feed): 102.2%; Absolute Weight Increase (g) of each animal after 28 days (Chick Fattening Test; Test 2, 10 ppm in feed, control 292.5): 299.2 g; Average Weight of each animal after 28 days (Chick Fattening Test; Test 2, 10 ppm in feed, control 351.6, initial weight 59.1 g): 358.3; Relative Weight Increase (%) after 14 days (Chick Fattening Test; Test 2, 20 ppm in feed): 106.8%; Absolute Weight Increase (g) of each animal after 14 days (Chick Fattening Test; Test 2, 20 ppm in feed, control 109.2): 116.7 g; Average Weight of each animal after 14 days (Chick Fattening Test; Test 2, 20 ppm in feed, control 168.3, initial weight 59.1 g): 175.8; Relative Weight Increase (%) after 28 days (Chick Fattening Test; Test 2, 20 ppm in feed): 102.8%; Absolute Weight Increase (g) of each animal after 28 days (Chick Fattening Test; Test 2, 20 ppm in feed, control 292.5): 300.9 g; Average Weight of each animal after 28 days (Chick Fattening Test; Test 2, 20 ppm in feed, control 351.6, initial weight 59.1 g): 360.0 |
| CNC(=O)c1c(C=NNC(=O)OCCO)[n+]([O-])c2ccccc2[n+]1[O-] [Example 25] | – | – | – | – | 100 µg/mL (≈ 286 µM) | 1 µg/mL (≈ 2.86 µM) | 100 µg/mL (≈ 286 µM) | 1 µg/mL (≈ 2.86 µM) | 100 µg/mL (≈ 286 µM) | 100 µg/mL (≈ 286 µM) | 100 µg/mL (≈ 286 µM) | 100 µg/mL (≈ 286 µM) | – | 100 µg/mL (≈ 286 µM) | – |
| CCNC(=O)c1c(C=NO)[n+]([O-])c2ccccc2[n+]1[O-] [Example 22] | – | – | – | – | 100 µg/mL (≈ 362 µM) | 1 µg/mL (≈ 3.62 µM) | 10 µg/mL (≈ 36.2 µM) | 10 µg/mL (≈ 36.2 µM) | 10 µg/mL (≈ 36.2 µM) | 100 µg/mL (≈ 362 µM) | 100 µg/mL (≈ 362 µM) | 0.1 µg/mL (≈ 0.362 µM) | 100 µg/mL (≈ 362 µM) | 100 µg/mL (≈ 362 µM) | – |
| CCOC(=O)NN=Cc1c(C(=O)NC)[n+]([O-])c2ccccc2[n+]1[O-] [Example 26] | 100 µg/mL (≈ 300 µM) | 10 µg/mL (≈ 30 µM) | 100 µg/mL (≈ 300 µM) | 100 µg/mL (≈ 300 µM) | 100 µg/mL (≈ 300 µM) | 1 µg/mL (≈ 3 µM) | 100 µg/mL (≈ 300 µM) | 0.1 µg/mL (≈ 0.3 µM) | 100 µg/mL (≈ 300 µM) | 100 µg/mL (≈ 300 µM) | 100 µg/mL (≈ 300 µM) | 100 µg/mL (≈ 300 µM) | – | 100 µg/mL (≈ 300 µM) | MIC (Escherichia coli C 165): 100 µg/mL (≈ 300 µM) |
